What all share (test): DTP human tumour cell line panel, 48 h
Assay [1] deals with SF-539.
Assay [2] relates to NCI-H460.
Assay [3] deals with RPMI-8226.
Assay [4] has as its system A549.
Assay [5] has as its system EKVX.
Assay [6] relates to OVCAR-8.
Assay [7] has as its system SF-295.
For assay [8], the system named is PC-3.
The test system of assay [9] is SK-MEL-5.
For assay [10], the system named is OVCAR-4.
In assay [11] the test system is HT-29.
The test system of assay [12] is SF-268.
For assay [13], the system named is HCT-15.
The test system of assay [14] is Malme-3M.
The subject of assay [15] is MDA-MB-231.
The test system of assay [16] is MDA-MB-435.
The test system of assay [17] is SNB-75.
The test system of assay [18] is T47D.
The test system of assay [19] is SK-OV-3.
For assay [20], the system named is NCI-H226.

11 compounds from ChEMBL document CHEMBL1201862, “PubChem BioAssay data set” (2004) can be followed below.

The structures appear in SMILES notation.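 Cells were grown in 96-well plates and exposed to each compound for 48 hours at five concentrations; endpoints were interpolated linearly between bracketing concentrations, or set to the highest concentration if not reached. Here, GI50 denotes the concentration required for 50% inhibition of growth.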 Activity calls are given as the source filed them. No stated cut-off is given here; in the data, active = GI50 up to about 1.1 µM and inactive = higher.

As to `Clc1c2nc3ccccc3c-2[nH]c2ccccc12`, the GI50 – broadly, the concentration giving 50% growth inhibition – was 13.7 µM (inactive) in assay [1]; 27.2 µM (inactive) in assay [2]; 7.96 µM (inactive) in assay [3]; 34 µM (inactive) in assay [4]; 10.6 µM (inactive) in [5]; 29 µM (inactive) in [6]. The GI50 in [7] was < 0.01 µM (active); in assay [8], 17.5 µM (inactive); in [9], 3.95 µM (inactive); in assay [10] it was > 100 µM (inactive); in assay [11], 4.3 µM (inactive); in assay [12], 64.3 µM (inactive). The concentration for 50% growth inhibition (GI50) in assay [13] was 14.4 µM; in [14], 30.7 µM (inactive); in [15] it was 11.7 µM (inactive); in [16] it was 5.11 µM (inactive); in assay [17], 39.9 µM (inactive); in assay [18], 17.7 µM (inactive).
As for `O=C1Nc2cccc(Cl)c2/C1=C\c1c(Cl)nc2sccn12`, the GI50 in assay [1] was 5.2 µM (inactive); in assay [2], > 100 µM (inactive); in assay [3], > 100 µM (inactive); in assay [4] it was > 100 µM (inactive); in assay [5] it was 43.3 µM (inactive); in assay [6], 31.1 µM (inactive). Moreover, the GI50 is 28.2 µM (inactive) in [7]; 64.4 µM (inactive) in assay [8]; > 100 µM (inactive) in assay [9]; 14.9 µM (inactive) in [19]; > 100 µM (inactive) in assay [11]; 18.9 µM (inactive) in assay [12]. The GI50 in [13] is greater than 100 µM; in [14], 76 µM (inactive); in assay [15], 16.3 µM (inactive); in assay [16], > 100 µM (inactive); in assay [17] it was 11.2 µM (inactive); in [18], 44.6 µM (inactive).
`CCN(CC)CCn1nc(N)c2nc3cc(Cl)ccc3nc21`: the GI50 in assay [2] was 34.3 µM (inactive); in assay [3], 89.9 µM (inactive); in [4] it was 49.8 µM (inactive); in assay [5], 80 µM (inactive); in assay [6], 42.4 µM (inactive); in assay [20] it was 70.1 µM (inactive). Besides, the GI50 in assay [7] is 54.2 µM (inactive); in assay [8] it was 58.1 µM (inactive); in [9], 26.1 µM (inactive); in assay [10], > 100 µM (inactive); in assay [19], > 100 µM (inactive); in [11], 35.3 µM (inactive). The GI50 in [12] is 75.5 µM (inactive); in assay [13] it was greater than 100 µM; in assay [14] it was 61.7 µM (inactive); in assay [15] it was > 100 µM (inactive); in [16], 97.9 µM (inactive); in assay [18], > 100 µM (inactive).
With `O=C1C=CC(=O)c2c1ccc1c3ccccc3n(Cc3ccc([N+](=O)[O-])cc3)c21`, the GI50 in [1] is > 100 µM (inactive); in [2] it was > 100 µM (inactive); in [3], > 10 µM (inactive); in assay [4], > 100 µM (inactive); in assay [5] it was > 100 µM (inactive); in assay [6], > 100 µM (inactive). The GI50 in assay [20], in assay [7], in [8], in assay [9], in assay [10] and in assay [19] was > 100 µM (inactive) throughout. Also, the GI50 in assay [11] is > 100 µM (inactive); in [12], > 100 µM (inactive); in assay [13], 70.1 µM; in assay [15] it was > 100 µM (inactive); in [16], > 100 µM (inactive); in assay [17], > 100 µM (inactive). Moreover, in assay [18], the GI50 is 52.8 µM (inactive).
Take `CS(=O)(=O)OC1CN2CCC1CC2` (stereo unspecified): the GI50 in assay [2], in assay [3], in assay [4], in assay [5], in assay [6] and in [7] was > 100 µM (inactive) in each case. For the same compound, the GI50 in assay [8], in assay [9], in assay [10], in assay [19], in assay [11] and in assay [12] was > 100 µM (inactive) in each case. Moreover, the GI50 in assay [13] is greater than 100 µM; in assay [14], > 100 µM (inactive); in assay [15], > 100 µM (inactive); in assay [16], > 100 µM (inactive); in assay [17] it was > 100 µM (inactive); in assay [18], > 100 µM (inactive).
With `Cc1ccc(C2NC(=N)NC3=C2CCOc2c3ccc3ccccc23)cc1` (stereo unspecified), the GI50 in assay [1] is 1.57 µM (inactive); in [2], 14.2 µM (inactive); in assay [3] it was 4.42 µM (inactive); in assay [4], 14.6 µM (inactive); in [5], 7.8 µM (inactive); in [6], 33.6 µM (inactive). The GI50 in [7] was 16 µM (inactive); in assay [8] it was 21.9 µM (inactive); in assay [9], 12.9 µM (inactive); in assay [10], 9.38 µM (inactive); in assay [19], 42 µM (inactive); in assay [11], 1.81 µM (inactive). In addition, the GI50 is 24.7 µM (inactive) in assay [12]; 4.3 µM in [13]; 3.75 µM (inactive) in assay [15]; 2.27 µM (inactive) in [16]; 5.21 µM (inactive) in assay [17]; 25.2 µM (inactive) in assay [18].
In the case of `CN(C)C1(N(C)C)Oc2c(c(=O)n(C)c(=O)n2C)C(c2ccc(Br)cc2)C1(F)F` (stereo unspecified), the GI50 in assay [2], in assay [3], in assay [4], in [5], in [20] and in [7] was > 100 µM (inactive) in each case. Moreover, the GI50 in [8] is > 100 µM (inactive); in assay [9] it was > 100 µM (inactive); in assay [10] it was > 100 µM (inactive); in [19], > 100 µM (inactive); in assay [12] it was > 100 µM (inactive); in assay [13] it was greater than 100 µM. Also, the GI50 in [15], in [16], in [17] and in [18] was > 100 µM (inactive) throughout.
As to `Cn1nc2ccc3nccc(N4CCN(CCO)CC4)c3c2n1`, the GI50 in assay [2] is > 100 µM (inactive); in assay [4], > 100 µM (inactive); in assay [6], > 100 µM (inactive); in assay [20], > 100 µM (inactive); in assay [7], > 100 µM (inactive); in assay [8], 19.3 µM (inactive). For the same compound, the GI50 in assay [9] is > 100 µM (inactive); in [10], > 100 µM (inactive); in [19], > 100 µM (inactive); in assay [11], > 100 µM (inactive); in assay [12] it was > 100 µM (inactive); in [13], 4.02 µM. Also, the GI50 was > 100 µM (inactive) in assay [14]; > 100 µM (inactive) in assay [15]; > 100 µM (inactive) in assay [16]; > 100 µM (inactive) in assay [17]; 42.3 µM (inactive) in assay [18].
On to `CN(CCNC(=O)c1n[nH]c2c1Cc1ccccc1-2)CCNC(=O)c1n[nH]c2c1Cc1ccccc1-2`, for which the GI50 was 18.1 µM (inactive) in assay [2]; 20.6 µM (inactive) in [4]; 20.6 µM (inactive) in [5]; 20.9 µM (inactive) in assay [6]; 19.1 µM (inactive) in assay [20]; 16.6 µM (inactive) in [7]. In addition, the GI50 in [8] was 17.8 µM (inactive); in [9], 16.9 µM (inactive); in assay [10], 15.9 µM (inactive); in assay [19], 16.5 µM (inactive); in assay [11] it was 17.7 µM (inactive); in assay [12], 19.5 µM (inactive). The 50% growth inhibitory concentration (GI50) in assay [13] was 18.4 µM; in assay [14] it was 19.2 µM (inactive); in assay [15] it was 19 µM (inactive); in [16] it was 17.5 µM (inactive); in [17], 12.5 µM (inactive); in assay [18], 18.8 µM (inactive).
On to `C1=C[C@]2(CCC13OCCO3)COc1ccccc12`, for which the GI50 in assay [2] was 31.7 µM (inactive); in assay [3], 25.5 µM (inactive); in [4], > 100 µM (inactive); in assay [5], 66.1 µM (inactive); in assay [6] it was 32.4 µM (inactive); in assay [20], 31.9 µM (inactive). The GI50 in assay [7] is 43.1 µM (inactive); in assay [8], 35.8 µM (inactive); in assay [9], 52 µM (inactive); in assay [10], 47 µM (inactive); in assay [19], 53.2 µM (inactive); in assay [11], 28.5 µM (inactive). Further, the GI50 is 28 µM in assay [13]; 75.9 µM (inactive) in assay [15]; 31.9 µM (inactive) in assay [16]; 42.3 µM (inactive) in [17]; 47 µM (inactive) in assay [18].
Consider `CC(C)(Sc1cc(C(C)(C)C)c(O)c(C(C)(C)C)c1)Sc1cc(C(C)(C)C)c(O)c(C(C)(C)C)c1` [PROBUCOL], for which the GI50 in assay [1] was > 100 µM (inactive); in assay [2], > 100 µM (inactive); in [3], > 100 µM (inactive); in assay [4] it was > 100 µM (inactive); in assay [5], 4.57 µM (inactive); in assay [6], > 100 µM (inactive). Besides, the GI50 in [7], in [8], in assay [9], in assay [10], in assay [19] and in assay [11] was > 100 µM (inactive) each time. Moreover, the GI50 is 52.8 µM (inactive) in assay [12]; greater than 100 µM in assay [13]; > 100 µM (inactive) in assay [14]; > 100 µM (inactive) in assay [15]; > 100 µM (inactive) in [16]; > 100 µM (inactive) in assay [17]. The GI50 in [18] was > 100 µM (inactive).
